Reference: patent US9399145B2, “Nanoscale neuromodulating platform for retina neuron activation apparatus and method” (The Board of Trustees of the University of Illinois, priority 2005, dated 2016)

Key:
[1] = Hydrophobicity (log P); assay type: physicochemical
[2] = tested on: GABAARs of cerebellar PNs; assay: Whole-cell voltage clamp of cerebellar Purkinje neurons in slices, GABA-evoked currents with UV/blue light; assay type: cell-based, mouse; details: 10 μM GABA plus 300 μM propofol
[3] = target: T1, α4β3δ GABAAR (Homo sapiens, UniProt P28472+P48169); assay: Two-electrode voltage clamp of α4β3δ GABAAR-expressing oocytes; assay type: cell-based; details: 200 μM propofol and 50 nM GABA
T1 construct: expressed in transfected cells; host or cells: Xenopus oocytes
Excerpt: Propofol is known to modulate GABAA receptors that contain a β subunit. […] Data in each group was obtained from 4 oocytes.

[4] = target: T2, α1β2γ2 GABAARs (rat α1, rat β2 and human γ2S) (UniProt P18507+P62813+P63138); assay: Two-electrode voltage clamp of α1β2γ2 GABAAR-expressing Xenopus oocytes; assay type: cell-based
T2 construct: expressed in transfected cells; host or cells: Xenopus laevis oocytes
Excerpt: Purple and gray bars indicate periods of presentation of UV light (purple) and high-intensity visible light (High-Vis) (gray), respectively. […] These amplitude determination conditions are denoted by numbers beneath the waveform in FIG. 35d.
In each of the MPC088 experiments, the cis-dominant form was generated by UV light during static bathing. […] Numbers beneath the waveform in FIG. 2(c) denote amplitude determination conditions for that experiment.
Oocytes expressing α1β2γ2 receptors (rat α1, rat β2 and human γ2S) were prepared and studied by two-electrode voltage-clamp recording^58 (holding potential: −70 mV; amplifier: GeneClamp500B; Axon Instruments, Foster City, Calif.). Unless otherwise indicated, oocytes were superfused with Ringer solution (physiological saline) at a rate of ˜1 mL/min. The experiments of FIGS. 35d-e, 36c-e and 47 involved periods of static bathing, i.e., halted superfusion. The γ2(A79C) subunit was prepared by site-directed mutagenesis. Oocyte electrophysiological experiments were carried out in room light. A UV light-emitting diode (peak wavelength: 365 nm; Hamamatsu Photonics, Japan) and a microscope illuminator (white light; Schott Fostec, Auburn, N.Y.) provided UV and visible stimulating light. As measured at the position of the oocyte, the intensity of the UV light at 365 nm was 220 μW/mm^2. At 440 nm, the nominal strength of the visible (white) light (referred to as high-intensity visible light) was 28 μW/mm^2, and that of the ambient room illumination was 0.045 μW/mm^2. In all experiments, low-intensity visible light from the microscope illuminator (3 μW/mm^2 at 440 nm) was present at all times except those involving high-intensity visible illumination. Electrophysiological data were obtained using Clampex 8.2 (Axon Instruments), analyzed using Clampfit 10.0 (Axon Instruments) and OriginPro7.5 (OriginLab, Northampton, Mass.). All statistical analysis employed a two-sample t-test.

[5] = target: T3, α1β2γ2 GABAARs (UniProt P18507+P62813+P63138); assay type: binding; details: 1 μM competitor added to 10 μM 23 and 3 μM GABA
T3 construct: expressed in transfected cells; host or cells: Xenopus laevis oocytes
Excerpt: Tomlinson and Rosenthal, the linear chain of 22 is further extended by an amide-linked PEG5000 that is terminated by biotin. […] Bright-field images of the (opaque) oocytes illustrate the focus of the oocyte border during fluorescence microscopy.

[6] = tested on: GABAARs of cerebellar PNs; assay: Test for direct agonist activity on Purkinje neurons (recirculating MPC088, no exogenous GABA); assay type: cell-based, mouse; details: 30 μM gabazine added to 30 μM MPC088
Procedure: To test for direct agonist activity of MPC088 on PNs, cerebellar slices were perfused with recirculating 30 μM MPC088 (the maximal MPC088 concentration that could be reliably maintained solubilized in bicarbonate-buffered solution). MPC088 was converted to cis-dominant form by a 2-min exposure to UV light (LED, 365 nm/160 mW, Mouser, Inc., Mansfield, Tex.; LED driver, 700 mA BuckPuck DC Driver, Quadica Developments, Inc., Brantford, Ontario, Canada), before its dilution into the recirculating external solution. The same LED was then used to continuously UV-illuminate the recirculating solution for the duration of the experiment. Whole-cell voltage clamp recordings were obtained from PNs and determined the change in membrane current produced by alternating blue and UV illumination of the slice, as in the FIG. 40 experiments. […] The temporal sequence of illumination differed among the experiments (e.g., only the cell in a received multiple blue/UV exposures), but the data plotted are the amplitudes from the blue to UV transition (in the case of the cell in a, this is the blue/UV transition from the first of the three exposures). Yellow-filled data points indicate results from the experiment in a. Each data point is the average obtained from 4-10 consecutive recordings. […] Error bars represent the SEM (FIG. 42b).

SMILES: CC(C)c1cccc(C(C)C)c1O [propofol, reference compound]
- logP [1]: ~4
- light-induced current change [2]: little or no light-induced current change
- response relative to the saturating GABA-alone response [3]: 1.2±0.1 fold
- maximum current of direct activation relative to the 100 μM GABA response [4]: about 40%

SMILES: CN1C(=O)CN=C(c2ccccc2)c2cc(Cl)ccc21 [diazepam, reference compound]
- effect on fluorescent border from binding of 23 (competition) [5]: virtually eliminated
- potentiation factor of the 3 μM GABA response [4]: 1.92±0.36

SMILES: COc1ccc(-c2ccc(=N)n(CCCC(=O)O)n2)cc1 [gabazine, reference compound]
- average current remaining relative to the pre-gabazine current [6]: 11±3%
- effect of antagonist on the MPC088-elicited response ([4]; picrotoxin 100 μg, gabazine 30 μg, bicuculline 100 μM (so in the source)): not sensitive
